In patent publication US11242549B2, “Bio-refinery waste utilization for enzyme production using novel penicillium funiculosum MRJ-16 fungal strain” (INDIAN OIL CORPORATION LIMITED, priority 2019, dated 2022):
Like-named read-outs stand apart in the source and are kept apart here.

System: Penicillium funiculosum MRJ-16 mutant strain
Type: cell-based
Conditions: 120 hours of fermentation
Experimental: Fermentation process was carried out using ammonium sulphate (3-5 g/L), KH2PO4 (4-6 g/L), MgSO4.7H2O (0.5-1 g/L), CaCO3 (2.5-5 g/L), Glycerol (2-3 g/L), Corn steep solids (25-35 g/L), cellulose (25-40 g/L) and Tween-80 (1-2 ml/L) dissolved in distilled water. Novel Penicillium funiculosum MRJ-16 mutant strain developed in the laboratory was used for the study. […]
Cultivation of Penicillium funiculosum MRJ-16 mutant strain was conducted under conditions and media composition identical to example no. 1 along with inhibitors at different concentration.

SMILES | Average FPA/ml (inhibitor 0.25% in media) | Average FPA/ml (inhibitor 0.5% in media)
O=Cc1ccco1 [Furfural, furfural] | 6.83 FPA/ml | 
CC(=O)O [Acetic acid, acetic acid] |  | 6.49 FPA/ml
O=Cc1ccc(CO)o1 [HMF, hydroxyl methyl furfural] | 6.07 FPA/ml | 
